Source: patent US20100158808A1, “Altered Activity of Toll-Like Receptors” (priority 2003, published 2010)

Tests used:
mice = experiment: Experimental shock model (SIRS), D-galactosamine, i.p. injection; type: in vivo; conditions: for Survival in shock model: mice, i.p. with D-galactosamine
Procedure: Experimental shock model. Age- and sex-matched mice were injected with 5 mg of HS, 5 μg of LPS, 5 μg of Limulus anti-LPS factor, 5 mg of chondroitin sulfate, 200 U (−5 mg) heparin, 150 μg of CpG DNA, 1.5 U of elastase, or PBS mixed with 20 mg of D-galactosamine in a total volume of 500 μl of PBS by i.p. injection as previously described (Franks et al. (1991) Infect. Immun. 59:2609). Concentrations of HS and elastase were calculated by weight of lyophilized powder, and the doses used were near the LD50 based on dose-response experiments. In some experiments, the agonist was mixed with 5 or 20 μg of Limulus anti-LPS factor before injection. For some injections, enzymes were boiled at 100° C. for 60 minutes and vortexed vigorously, or preincubated with elastase inhibitor-1 for 4 hours at room temperature and then mixed with D-galactosamine before injection. Mice were monitored every hour for 48 hours and then euthanized.
During sepsis, Gram-negative bacteria shed LPS, which activates TLR4 on cells that then release inflammatory cytokines mediating systemic inflammation and death (Beutler (2000) Curr. Opin. Immunol. 12:20). To determine whether soluble HS can induce a model of systemic inflammatory response syndrome (SIRS) via activation of TLR4 in mice, HS was administered by i.p. injection to TLR4 wild type and mutant mice. This mouse model system has been used to study shock and a sepsis-like syndrome in response to microbial toxins (Galanos et al. (1979) Proc. Natl. Acad. Sci. USA 76:5939). […] Moreover, the observed responses were not due to contamination of HS by LPS, since the HS used was not contaminated with LPS.

TLR4 = target: T1, TLR4 (Mus musculus, UniProt Q9JHF9+Q9QUK6); experiment: NFκB-luciferase reporter assay in HEK 293 cells stably expressing TLR4, MD2 and/or CD14; type: cell-based, murine; design: expressed in transfected cells; host or cells: HEK 293; conditions: HEK 293 cells lacking TLR4 and MD2 or CD14
T1 sequence (Q9QUK6 26-835): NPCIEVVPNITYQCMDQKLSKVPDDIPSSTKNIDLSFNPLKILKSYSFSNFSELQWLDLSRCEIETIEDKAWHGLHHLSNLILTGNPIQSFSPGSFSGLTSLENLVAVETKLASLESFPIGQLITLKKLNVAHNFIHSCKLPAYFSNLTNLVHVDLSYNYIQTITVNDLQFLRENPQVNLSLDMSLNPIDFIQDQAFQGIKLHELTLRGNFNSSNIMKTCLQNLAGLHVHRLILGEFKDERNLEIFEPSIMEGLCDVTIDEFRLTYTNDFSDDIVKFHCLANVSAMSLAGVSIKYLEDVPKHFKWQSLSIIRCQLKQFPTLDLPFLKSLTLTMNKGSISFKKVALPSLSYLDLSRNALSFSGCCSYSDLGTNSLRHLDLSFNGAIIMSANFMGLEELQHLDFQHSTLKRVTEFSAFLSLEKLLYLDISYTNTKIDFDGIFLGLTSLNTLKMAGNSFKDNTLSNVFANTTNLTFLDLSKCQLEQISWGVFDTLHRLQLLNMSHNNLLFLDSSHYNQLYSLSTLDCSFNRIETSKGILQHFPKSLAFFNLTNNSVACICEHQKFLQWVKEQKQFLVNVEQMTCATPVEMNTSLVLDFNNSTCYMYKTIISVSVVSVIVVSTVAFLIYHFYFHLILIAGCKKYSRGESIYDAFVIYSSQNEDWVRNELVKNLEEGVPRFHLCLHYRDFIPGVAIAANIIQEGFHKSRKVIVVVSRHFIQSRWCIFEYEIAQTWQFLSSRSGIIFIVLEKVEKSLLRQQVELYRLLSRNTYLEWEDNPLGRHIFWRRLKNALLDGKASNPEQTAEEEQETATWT
T1 sequence (Q9JHF9 19-160): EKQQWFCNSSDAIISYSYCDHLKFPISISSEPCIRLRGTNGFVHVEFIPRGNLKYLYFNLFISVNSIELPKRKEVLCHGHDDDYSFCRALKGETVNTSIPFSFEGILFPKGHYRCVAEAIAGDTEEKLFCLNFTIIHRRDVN
Procedure: Model ECM environment. Tissue culture plates were coated with ECM as follows. PAEC were seeded into 6-well (3×10^5 cells/well), 24-well (5×10^4 cells/well) or 100 mm (2×10^5 cells) fibronectin-coated tissue culture plates (BD Biosciences, San Jose, Calif.) in DMEM (Invitrogen) containing 10% fetal bovine serum supplemented with penicillin and streptomycin and 4% w/v of Dextran 40. The cell cultures were incubated at 37° C. in 5% CO2 humidified atmosphere for seven days and were supplemented with […] on day three and day five. After 7 days, endothelial cells were washed once with phosphate buffered saline (PBS) and lysed by exposure to 0.5% w/v Triton X-100 and 20 mM NH4OH in PBS (pH 7.4) at 37° C. for 20 minutes (Bonifacino, 1998). The wells were then washed 4 times with PBS (pH 7.4) and inspected microscopically to ensure removal of the cells. Plates were used immediately or were stored in PBS (pH 7.4) with […] at 4° C.
HEK 293 cells were stably transfected with the TLR4 and MD2 or CD14 expression plasmids using Superfect (Qiagen, Valencia, Calif.) following the manufacturer's instructions. HEK 293 cells expressing TLR4 and MD2 or CD14 were obtained by culturing the transfected cells with appropriate antibiotic selection medium, and were cloned by limiting dilution in the selection medium. HEK 293 cells expressing TLR4, MD2 and CD14 were generated by transfecting HEK 293 cells that expressed TLR4 and MD2 with the CD14 expression plasmid, and selecting clones using appropriate antibiotic containing medium. Cell lines expressing TLR4 and MD2 and/or CD14 were then maintained in DMEM supplemented with 10% fetal bovine serum and the appropriate selection antibiotics. Control cell lines were transfected with empty expression vectors and incubated in selection conditions as described above. Selected clones were tested for cell surface expression of the TLR4/MD2 complex and CD14 by flow cytometry using monoclonal antibodies specific for the TLR4/MD2 complex or CD14.
NFκB-luciferase reporter assays. Activation of NFκB was measured using a NFκB-luciferase reporter assay. HEK 293 cell lines stably expressing TLR4, MD2 and/or CD14, or control cells were seeded into 24 well tissue culture plates (2×10^5 cells/well) in 1.0 ml DMEM containing 10% fetal bovine serum and penicillin and streptomycin. The cells were allowed to adhere to the culture wells at 37° C. overnight and were then transfected with […] NFκB-firefly-luciferase using Superfect Transfection Reagent (Qiagen). Following transfection, the cells were washed once with phosphate buffered saline and cultured for 24 hours at 37° C. in 1.0 ml DMEM containing 0.5% fetal bovine serum. After various treatments, the culture medium was aspirated and the cells were washed once with PBS. The cells were lysed in […] Passive Lysis Buffer (Promega) with rocking at room temperature for 15 minutes. Renilla- and Firefly-luciferase were assayed simultaneously using the Dual-Luciferase Reporter Assay System (Promega) and a TD-20/20 luminometer (Turner Designs, Sunnyvale, Calif.). Activation of NFκB was reported as a ratio of the firefly luciferase activity to the constitutively expressed Renilla luciferase internal control, and is the mean of triplicate wells.
To determine whether and under what conditions HS stimulates TLR4, various combinations of TLR4, MD2 and CD14, components of the putative TLR4 receptor complex, were stably expressed in HEK 293 cells and the effect of HS on TLR4 signaling in the transfected cells was examined (FIG. 1). The HEK 293 cells expressing receptor components were transiently transfected with a NFκB-firefly luciferase reporter construct along with a Renilla-luciferase internal control reporter construct. […]

TLR4/MD2 complex = target: T2, TLR4/MD2 complex (Mus musculus, UniProt Q9JHF9+Q9QUK6); experiment: Cell surface expression of TLR4/MD2 in HEK/TLR4(+) cells by flow cytometry; type: cell-based, murine
T2 construct: expressed in transfected cells; host or cells: HEK 293 clone HEK/TLR4(+)
T2 sequence (Q9QUK6 26-835): T1 sequence (Q9QUK6 26-835)
T2 sequence (Q9JHF9 19-160): T1 sequence (Q9JHF9 19-160)
Procedure: FIG. 2A is a graph plotting the level of reporter activity in HEK/TLR4(+) cells transfected with NFκB- and control-luciferase reporter plasmids and then stimulated with intact HS or LPS, or with HS or LPS that had been treated with nitrous acid (HNO2) at pH 4.0 or pH 1.5. Controls were treated with PBS vehicle. […] FIG. 2C is a graph showing the effect of PBS, HS, depolymerized HS (nitrous acid, pH 1.5), and recombinant human IL-1α on cell surface expression of TLR4/MD2 in HEK/TLR4(+) cells. Expression of TLR4 on the cell surface was determined by flow cytometry using a monoclonal antibody specific to the TLR4/MD2 complex. Values are the mean of triplicate wells and are representative of three separate experiments.
To determine whether the effect of HS occurred through specific action on TLR4, surface expression of the TLR4/MD2 complex on cells treated with HS was examined. […] Thus, HEK/TLR4(+) cells responded to HS by activating NFκB and mobilizing receptor complexes.

Substance: Boc-Ala-Ala-Ala-NHO-Bz [elastase inhibitor-1]
- Reduction of the death rate after elastase injection (mice; elastase preincubated with elastase inhibitor-1 for 4 hours): 50%

Substance: chondroitin sulfate
- Survival in shock model (mice): all but one mouse

Substance: heparin
- Survival in shock model (mice): survived

Substance: recombinant human IL-1α: recombinant human IL-1α, activates NFκB via the IL-1 receptor
- Activation of NFκB-luciferase reporter (TLR4): activated
- Change in surface expression of TLR4/MD2 (TLR4/MD2 complex): did not change
